Values after ≈ are worked out from the molar mass of the structure shown. Like-named read-outs stand apart in the source and are kept apart here.
Assays:
[1] = test system: colon cancer cell line HCT116; assay: Anti-tumor activity in vitro, MTT method; assay type: cell-based; settings: Homo sapiens, HCT-116, 48 h
Candida tropicalis = assay: Antifungal activity, modified broth microdilution; assay type: cell-based; settings: Candida tropicalis; 48 hours at 35, approximately 50% reduction of growth
Method: (§1) The test microorganisms are maintained on Sabourahd Dextrose Agar slant at 4[…]. Singlet suspension of each microorganism is prepared by growing the yeast overnight at 27[…] on a rotating drum in yeast-nitrogen base broth (YNB) with amino acids (Difco, Detroit, Mich.), (pH 7.0) and 0.05 morpholine propanesulphonic acid (MOPS). […] The activity of the test compound is determined using a modified broth microdilution technique. […] Well 12 serves as a growth control. […] Inoculated plate is incubated for 48 hours at 35 °C. […] Minimal Cytolytic Concentration (MCC) is determined by subculturing all wells from the 96-well plate onto a Sabourahd Dextrose Agar (SDA) plate, incubating for 1-2 days at 35 °C, and then checking viability.

Cryptococcus neoformans = assay: Antifungal activity, modified broth microdilution; assay type: cell-based; settings: Cryptococcus neoformans; 48 hours at 35, approximately 50% reduction of growth
Method: as §1

[2] = test system: Candida albicans - ATCC 36082; assay: Antifungal activity, modified broth microdilution; assay type: cell-based; settings: Candida albicans, ATCC36082; 48 hours at 35, approximately 50% reduction of growth
Method: as §1

Candida parapsilosis = assay: Antifungal activity, modified broth microdilution; assay type: cell-based; settings: Lodderomyces parapsilosis; 48 hours at 35, approximately 50% reduction of growth
Method: as §1

[3] = Measurement of lipid-water partition coefficient (Log P); assay type: physicochemical; settings: n-octanol/distilled water, 25° C.
Method: n-octanol and distilled water were allowed to saturate each other for 24 h. An amount of the sample was weighed accurately into a 50 mL volumetric flask and metered with n-octanol that was saturated with water (the sample was dissolved completely). A 10 mL solution of the sample in n-octanol was placed in a 50 mL triangular flask, to which was added 10 mL distilled water which was saturated with n-octanol. The mixture was equilibrated (125 rpm, 72 h) at 25° C. with a constant temperature vibrator. The lipid-water partition coefficient was calculated by the concentrations of the drug in the n-octanol stock solution before the experiment and in the n-octanol layer after experiment.

CDK9/cyclin K = CDK9/cyclin K (Homo sapiens, UniProt P50750); assay: Kinase IC50, 33P labeled isotope method; assay type: biochemical; settings: 20 μM ATP
Chain of CDK9/cyclin K (P50750 19-315 limits assumed): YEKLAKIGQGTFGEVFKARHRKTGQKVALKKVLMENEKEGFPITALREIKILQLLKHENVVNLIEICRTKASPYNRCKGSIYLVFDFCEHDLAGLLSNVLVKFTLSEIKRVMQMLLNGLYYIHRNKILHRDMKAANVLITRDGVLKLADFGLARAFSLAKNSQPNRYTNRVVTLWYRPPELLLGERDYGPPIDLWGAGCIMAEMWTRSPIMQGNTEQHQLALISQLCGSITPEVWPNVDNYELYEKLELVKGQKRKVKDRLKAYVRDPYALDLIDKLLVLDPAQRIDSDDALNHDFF
Chain of CDK9/cyclin K (O75909 whole entry partner): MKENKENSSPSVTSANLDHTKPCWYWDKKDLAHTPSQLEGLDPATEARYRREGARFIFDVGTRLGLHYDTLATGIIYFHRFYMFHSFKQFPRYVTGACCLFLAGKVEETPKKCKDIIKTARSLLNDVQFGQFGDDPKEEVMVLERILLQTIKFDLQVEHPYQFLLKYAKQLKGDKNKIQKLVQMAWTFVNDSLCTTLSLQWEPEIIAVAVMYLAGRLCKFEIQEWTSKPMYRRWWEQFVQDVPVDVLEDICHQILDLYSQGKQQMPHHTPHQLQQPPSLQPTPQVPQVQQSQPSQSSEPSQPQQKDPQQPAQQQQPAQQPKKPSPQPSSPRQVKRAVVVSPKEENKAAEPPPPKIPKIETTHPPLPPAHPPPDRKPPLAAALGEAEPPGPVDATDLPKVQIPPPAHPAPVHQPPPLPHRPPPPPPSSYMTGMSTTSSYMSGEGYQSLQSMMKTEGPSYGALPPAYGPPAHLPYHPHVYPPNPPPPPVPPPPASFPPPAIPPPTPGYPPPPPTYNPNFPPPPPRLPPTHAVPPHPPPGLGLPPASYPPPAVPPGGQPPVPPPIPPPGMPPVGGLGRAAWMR

[4] = Measurement of water solubility; assay type: physicochemical; settings: thermodynamic from solid, distilled water, 25° C.
Method: An excess quantity of sample was added into a 50 mL triangular flask, to which 10 mL distilled water was added, and then the flask was vibrated in a Constant Temperature Vibrator at 25° C. for 72 h. The solution was centrifuged at 10000 r/min for 15 min and then the supernatant was filtrated with […] microfiltration membrane to remove undissolved drug. 2 mL filtrate was metered with methanol to 10 ml. The content of drug was determined with 20 μL sample injection.

Phytophthora infestans = assay type: in vivo
[5] = test system: liver cancer cell line 7721; assay: Anti-tumor activity in vitro, MTT method; assay type: cell-based; settings: 48 h, read-out: 7721 (IC50/μM)
GSK3b = GSK3b (Homo sapiens, UniProt P49841); assay: Kinase IC50, 33P labeled isotope method; assay type: biochemical; settings: 20 μM ATP
Chain of GSK3b (P49841 56-340 limits assumed): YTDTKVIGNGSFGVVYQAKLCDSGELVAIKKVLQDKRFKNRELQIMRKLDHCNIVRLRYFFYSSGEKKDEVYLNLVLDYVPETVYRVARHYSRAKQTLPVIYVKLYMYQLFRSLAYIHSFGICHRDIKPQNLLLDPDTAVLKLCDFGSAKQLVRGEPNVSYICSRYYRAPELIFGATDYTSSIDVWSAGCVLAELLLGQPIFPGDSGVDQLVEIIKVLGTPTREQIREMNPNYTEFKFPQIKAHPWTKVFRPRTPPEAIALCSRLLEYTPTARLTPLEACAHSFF

CDK6/cyclin D1 = CDK6/cyclin D1 (Homo sapiens, UniProt Q00534); assay: Kinase IC50, 33P labeled isotope method; assay type: biochemical
Chain of CDK6/cyclin D1 (Q00534 13-300 limits assumed): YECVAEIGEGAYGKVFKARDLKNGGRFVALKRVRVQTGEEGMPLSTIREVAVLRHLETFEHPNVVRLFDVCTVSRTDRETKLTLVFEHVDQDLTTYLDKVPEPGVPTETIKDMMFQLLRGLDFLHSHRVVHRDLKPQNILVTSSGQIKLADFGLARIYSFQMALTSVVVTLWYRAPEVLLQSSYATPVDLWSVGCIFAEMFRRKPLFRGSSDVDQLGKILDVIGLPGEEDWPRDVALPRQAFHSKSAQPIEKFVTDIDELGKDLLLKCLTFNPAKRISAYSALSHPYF
Chain of CDK6/cyclin D1 (P24385 whole entry partner): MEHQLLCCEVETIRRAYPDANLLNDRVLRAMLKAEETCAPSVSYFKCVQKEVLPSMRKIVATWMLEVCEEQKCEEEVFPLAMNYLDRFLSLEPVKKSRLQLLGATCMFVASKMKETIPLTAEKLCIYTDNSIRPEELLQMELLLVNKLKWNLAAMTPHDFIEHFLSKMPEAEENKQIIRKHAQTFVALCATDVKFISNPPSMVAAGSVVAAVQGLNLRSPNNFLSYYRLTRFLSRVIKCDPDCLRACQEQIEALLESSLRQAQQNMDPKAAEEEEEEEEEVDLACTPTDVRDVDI

FLT3 = target: T1, FLT3 (Homo sapiens, UniProt P36888); assay: Kinase IC50, 33P labeled isotope method; assay type: biochemical; settings: 20 μM ATP
T1 sequence (P36888 610-943 limits assumed): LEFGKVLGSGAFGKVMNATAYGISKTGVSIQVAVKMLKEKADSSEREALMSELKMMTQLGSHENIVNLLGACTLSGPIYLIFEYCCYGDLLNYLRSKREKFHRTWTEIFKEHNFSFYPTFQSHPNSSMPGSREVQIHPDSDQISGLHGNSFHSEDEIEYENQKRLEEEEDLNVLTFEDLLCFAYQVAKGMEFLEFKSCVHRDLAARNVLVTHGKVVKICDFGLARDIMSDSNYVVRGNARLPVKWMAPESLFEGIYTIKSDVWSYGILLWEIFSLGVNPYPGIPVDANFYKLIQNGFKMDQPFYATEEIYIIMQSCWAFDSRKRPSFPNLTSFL

| Structure (SMILES) | IC50 ([1]; read-out: HCT116 (IC50/μM)) [µM] | IC50 ([1]; read-out: HCT-116 (IC50/μM)) [µM] | MIC (Candida tropicalis) [µg/mL] | MIC (Cryptococcus neoformans) [µg/mL] | MIC [2] [µg/mL] | MIC (Candida parapsilosis) [µg/mL] | logP at 72 h [3] | IC50 (CDK9/cyclin K) [nM] | solubility at 72 h [4] [µg/mL] | Severity of tomato leaf blight (Phytophthora infestans; 0.0001 (unit not given)) | Severity of tomato leaf blight (Phytophthora infestans; 0.001 (unit not given)) | Severity of tomato leaf blight (Phytophthora infestans; 0.01 (unit not given)) | Severity of tomato leaf blight (Phytophthora infestans; 0.1 (unit not given)) | IC50 [5] [µM] | melting point [°C] | IC50 (GSK3b) [nM] | IC50 (CDK6/cyclin D1; 20 μM ATP, read-out: IC50* CDK6/cyclin D1) [nM] | IC50 (FLT3) [nM] | IC50 (CDK6/cyclin D1) [nM] |
| --- | --- | --- | --- | --- | --- | --- | --- | --- | --- | --- | --- | --- | --- | --- | --- | --- | --- | --- | --- |
| CN1CCN(Cc2ccc(NC(=O)c3n[nH]cc3Nc3ncnc4sccc34)cc2)CC1 [Compound I-1, 4-(4-thieno[2,3-d]pyrimidinylamino)-N-(4-((4-methyl-1-piperazinyl)methyl)phenyl)-1H-3-pyrazole carboxamide] | 0.25 | 0.13 | 2.3 (≈ 5.13 µM) | 3.64 (≈ 8.11 µM) | 2.9 (≈ 6.47 µM) | 2.08 (≈ 4.64 µM) | 1.27 | 39 | < 0.1 | +++ (40-60% blight) | ++ (15-40% blight) | + (0-15% blight) | − | 6.23 |  |  |  |  |  |
| O=C(Nc1ccc(CN2CCOCC2)cc1)c1n[nH]cc1Nc1ncnc2sccc12 [Compound I-2, 4-(4-thieno[2,3-d]pyrimidinylamino)-N-(4-((4-morpholinyl)methyl)phenyl)-1H-3-pyrazolecarboxamide] |  |  |  |  |  |  | 1.28 |  | < 0.08 |  |  |  |  |  | 262 to 265 |  |  |  |  |
| Cc1cc2c(Nc3c[nH]nc3C(=O)Nc3ccc(CN4CCN(C)CC4)cc3)ncnc2s1 [Compound I-3, 4-(4-(6-methylthieno[2,3-d]pyrimidinyl)amino)-N-(4-((4-methyl-1-piperazinyl)methyl)phenyl)-1H-3-pyrazolecarboxamide] |  |  |  |  |  |  |  | 37 |  |  |  |  |  |  | 235 to 238 | 1 | 4 |  |  |
| CN1CCN(Cc2ccc(NC(=O)c3n[nH]cc3Nc3ncnc4[nH]ccc34)cc2)CC1 [Compound I-11, 4-(4-(7H-pyrrolo[2,3-d]pyrimidinyl)amino)-N-(4-((4-methyl-1-piperazinyl)methyl)phenyl)-1H-3-pyrazolecarboxamide] |  |  | 7.72 (≈ 17.9 µM) | 15 (≈ 34.8 µM) | 7.45 (≈ 17.3 µM) | 11.2 (≈ 26 µM) |  |  |  | +++ (40-60% blight) | ++ (15-40% blight) | + (0-15% blight) | − |  |  | 1 |  | 1 | 4 |
| Cc1cc2c(Nc3c[nH]nc3C(=O)Nc3ccc(CN4CCN(C)CC4)cc3)ncnc2[nH]1 [Compound I-13, 4-(4-(6-methyl-7H-pyrrolo[2,3-d]pyrimidinyl)amino)-N-(4-((4-methyl-1-piperazinyl)methyl)phenyl)-1H-3-pyrazolecarboxamide] |  |  | 3.24 (≈ 7.27 µM) | 4.23 (≈ 9.49 µM) | 5.85 (≈ 13.1 µM) | 0.98 (≈ 2.2 µM) |  | 43 |  | ++ (15-40% blight) | ++ (15-40% blight) | + (0-15% blight) | − |  | 268 to 270 | 1 |  | 1 |  |
| CN1CCN(Cc2ccc(NC(=O)c3n[nH]cc3Nc3ncnc4occc34)cc2)CC1 [Compound I-21, 4-(4-furo[2,3-d]pyrimidinylamino)-N-(4-((4-methyl-1-piperazinyl)methyl)phenyl)-1H-3-pyrazolecarboxamide] |  | 9.58 | 8.29 (≈ 19.2 µM) | 13.8 (≈ 32 µM) | 7.82 (≈ 18.1 µM) | 9.76 (≈ 22.6 µM) |  | 45 |  | ++++ (>60% blight) | ++ (15-40% blight) | + (0-15% blight) | − | 17.4 | 255 to 257 | 1 |  | 1 |  |
| Cc1cc2c(Nc3c[nH]nc3C(=O)Nc3ccc(CN4CCN(C)CC4)cc3)nccc2s1 [Compound I-27, 4-(4-(2-methylthieno[3,2-c]pyridyl)amino)-N-(4-((4-methyl-1-piperazinyl)methyl)phenyl)-1H-3-pyrazolecarboxamide] |  |  | 3.57 (≈ 7.73 µM) | 4.06 (≈ 8.8 µM) | 5.48 (≈ 11.9 µM) | 1.02 (≈ 2.21 µM) |  | 43 |  | ++++ (>60% blight) | ++ (15-40% blight) | + (0-15% blight) | − |  | 267 to 269 | 1 |  | 1 |  |
